From article PMC6429331, “Synthesis, Molecular Docking and β-Glucuronidase Inhibitory Potential of Indole Base Oxadiazole Derivatives” (Molecules, 2019)

What was measured:
β-glucuronidase = target: T1, β-glucuronidase (Bos taurus, UniProt A3KMY8); test: β-Glucuronidase assay (p-nitrophenyl-β-D-glucuronide, absorbance at 405 nm); assay type: biochemical; settings: classified into three groups from Table 1
T1 sequence (A3KMY8 24-652): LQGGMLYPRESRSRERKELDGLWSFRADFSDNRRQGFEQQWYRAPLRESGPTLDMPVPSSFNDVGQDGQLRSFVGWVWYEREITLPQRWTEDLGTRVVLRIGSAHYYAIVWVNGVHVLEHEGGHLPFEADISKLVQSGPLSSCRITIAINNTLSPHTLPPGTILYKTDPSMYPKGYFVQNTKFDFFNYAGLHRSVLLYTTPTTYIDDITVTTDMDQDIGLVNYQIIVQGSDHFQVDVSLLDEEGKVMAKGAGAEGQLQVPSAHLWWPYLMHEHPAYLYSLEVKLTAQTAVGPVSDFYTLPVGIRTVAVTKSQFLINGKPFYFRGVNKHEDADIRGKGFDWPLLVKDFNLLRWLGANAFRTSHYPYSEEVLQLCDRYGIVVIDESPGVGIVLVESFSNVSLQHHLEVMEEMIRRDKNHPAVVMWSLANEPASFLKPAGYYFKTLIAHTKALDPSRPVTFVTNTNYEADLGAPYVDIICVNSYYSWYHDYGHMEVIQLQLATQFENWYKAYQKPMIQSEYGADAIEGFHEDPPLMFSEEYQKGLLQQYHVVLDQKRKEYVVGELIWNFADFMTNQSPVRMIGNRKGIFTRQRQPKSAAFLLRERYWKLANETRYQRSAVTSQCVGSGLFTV
Method: β-glucuronidase activity was determined in accordance to method used by measuring absorbance at 405 nm of p-nitrophenol formed substrate by spectrophotometric method. 250 µL was the volume of total reaction. Reaction mixture containing 5 µL of test compound solution, 185 µL of 0.1M acetate buffer, and 10 µL of enzyme solution were incubated for 30 min at 37 °C. At 405 nm the plates were recorded on multiplate reader (SpectaMax plus 384) after the addition of 50 µL of 0.4mM p-nitrophenyl-β-D-glucuronide. Experiments were performed for triplicate.

melting point | activity group according to inhibitory IC50 values (β-glucuronidase) | Structure (SMILES)
294 to 295 °C | – | Fc1ccccc1-c1nnc(Cc2cc3ccccc3[nH]2)o1 [Compound 18, 2-((1H-indol-2-yl)methyl)-5-(2-fluorophenyl)-1,3,4-oxadiazole]
314 to 315 °C | – | Oc1ccccc1-c1nnc(Cc2cc3ccccc3[nH]2)o1 [Compound 3, 2-(5-((1H-indol-2-yl)methyl)-1,3,4-oxadiazol-2-yl) phenol]
– | moderate active group | Oc1ccc(O)c(-c2nnc(Cc3cc4ccccc4[nH]3)o2)c1 [Compound 5, 2-(5-((1H-indol-2-yl)methyl)-1,3,4-oxadiazol-2-yl) benzene-1,4-diol]
300 to 301 °C | low active group | Cc1ccccc1-c1nnc(Cc2cc3ccccc3[nH]2)o1 [Compound 2, 2-((1H-indol-2-yl)methyl)-5-(o-tolyl)-1,3,4-oxadiazole]
279 to 280 °C | – | c1cncc(-c2nnc(Cc3cc4ccccc4[nH]3)o2)c1 [Compound 16, 2-((1H-indol-2-yl)methyl)-5-(pyridin-3-yl)-1,3,4-oxadiazole]
311 to 312 °C | moderate active group | Oc1cccc(-c2nnc(Cc3cc4ccccc4[nH]3)o2)c1 [Compound 4, 3-(5-((1H-indol-2-yl)methyl)-1,3,4-oxadiazol-2-yl) phenol]
318 to 319 °C | – | Oc1ccc(-c2nnc(Cc3cc4ccccc4[nH]3)o2)c(O)c1 [Compound 8, 4-(5-((1H-indol-2-yl)methyl)-1,3,4-oxadiazol-2-yl) benzene-1,3-diol]
284 to 285 °C | – | c1ccc2[nH]c(Cc3nnc(-c4ccncc4)o3)cc2c1 [Compound 17, 2-((1H-indol-2-yl)methyl)-5-(pyridin-4-yl)-1,3,4-oxadiazole]
303 to 304 °C | – | O=[N+]([O-])c1cccc(-c2nnc(Cc3cc4ccccc4[nH]3)o2)c1 [Compound 11, 2-((1H-indol-2-yl)methyl)-5-(3-nitrophenyl)-1,3,4-oxadiazole]
307 to 308 °C | – | O=[N+]([O-])c1ccccc1-c1nnc(Cc2cc3ccccc3[nH]2)o1 [Compound 10, 2-((1H-indol-2-yl)methyl)-5-(2-nitrophenyl)-1,3,4-oxadiazole]
313 to 314 °C | – | COc1ccc(O)c(-c2nnc(Cc3cc4ccccc4[nH]3)o2)c1 [Compound 13, 2-(5-((1H-indol-2-yl)methyl)-1,3,4-oxadiazol-2-yl)-4-methoxyphenol]
309 to 310 °C | – | O=[N+]([O-])c1ccc(-c2nnc(Cc3cc4ccccc4[nH]3)o2)cc1 [Compound 12, 2-((1H-indol-2-yl)methyl)-5-(4-nitrophenyl)-1,3,4-oxadiazole]
304 to 305 °C | low active group | Cc1ccc(-c2nnc(Cc3cc4ccccc4[nH]3)o2)cc1 [Compound 1, 2-((1H-indol-2-yl)methyl)-5-(p-tolyl)-1,3,4-oxadiazole]

Structure (SMILES) | melting point | activity group according to inhibitory IC50 values (β-glucuronidase)
Oc1ccc(-c2nnc(Cc3cc4ccccc4[nH]3)o2)cc1O [Compound 7, 4-(5-((1H-indol-2-yl)methyl)-1,3,4-oxadiazol-2-yl) benzene-1,2-diol] | 316 to 317 °C | Highly active group
Oc1cccc(-c2nnc(Cc3cc4ccccc4[nH]3)o2)c1O [Compound 6, 3-(5-((1H-indol-2-yl)methyl)-1,3,4-oxadiazol-2-yl) benzene-1,2-diol] | 317 to 318 °C | Highly active group
